According to US11400131B2, “Multi-peptide composition” (King's College London, priority 2015, dated 2022):

Key:
[1] = system: peripheral blood mononuclear cells; test: IFN-γ ELISPOT response of Type 1 diabetes patients to nested IA-2 peptides; type: cell-based, human; details: nested peptides compared with parental sequences; response positive when SI ≥3; FIG. 1
Procedure: Detection of interferon (IFN)-γ by CD4^+ T cells in response to peptide stimulation was carried out using an enzyme-linked immunospot (ELISPOT) assay that has significant discriminative ability for type 1 diabetes in blinded proficiency testing, as previously described (Arif, S. et al. J Clin Invest 2004; 113: 451-463 and Herold, K. C. et al. Diabetes 2009; 58: 2588-2595). Data are expressed as the mean number of spots per triplicate and compared with the mean spot number in the presence of diluent alone (stimulation index; SI). A response is considered positive when the SI is ≥3 using cut-offs determined using receiver-operator characteristic plots as previously described (Arif, S. et al. J Clin Invest 2004; 113: 451-463).
The results are shown for 3 parental sequences (cross-hatched), and these are compared with shorter nested sequence peptides. Responses represent IFN-γ production by peripheral blood mononuclear cells cultured with each peptide, as detected using an enzyme-linked immunospot assay.

proinsulin = test: Serum proinsulin specific IgG after mono-/multi-PI treatment; type: in vivo, HLA-DR4-Tg mice; details: 4 weekly intradermal injections of individual peptide; FIG. 4E-F
Procedure: In brief, tolerance to proinsulin was breached in mice by subcutaneous immunisation with 100 μg proinsulin protein emulsified in CFA and treatment with intraperitoneal pertussis toxin immediately and 1 day after immunisation. Mice then received 4 weekly intradermal treatments of 10 μg control-PI or proinsulin mono/multi-PI (C13-32 (SEQ ID NO: 4); C19-A3 (SEQ ID NO: 5); C22-A5 (SEQ ID NO:6)), before subcutaneous immunisation with 100 μg proinsulin protein emulsified in IFA to boost the ongoing autoimmune response (A). Lymph nodes (LNs) were harvested 7 days later and LN cell suspensions were cultured with or without proinsulin protein or peptide (C13-32; C19-A3; C22-A5) for 48 hours in vitro. Proliferation of CD4^+ T cells and IFN-γ production were analysed by CFSE dilution at 96 hours (B) and ELISA at 48 hours (C) in response to in vitro stimulation with 50 μg/mL proinsulin protein and 10 μg/mL peptides (C13-32; C19-A3; C22-A5). Serum levels of proinsulin specific IgG1 were measured at day 42 (D). Percentages of proliferating CD3^+CD4^+CD25^highFoxP3^+ Tregs were measured by flow cytometry in LN cultures at day 42 (E). Data are representative of three independent experiments. *p<0.05, **p<0.01, ***p<0.001; Statistical significance was determined by one-way ANOVA or Student's t test. 15 mice per group in B and C; 5 mice per group D-F.
Tolerance to proinsulin was breached in mice by subcutaneous immunisation with 100 μg proinsulin protein emulsified in CFA and treatment with intraperitoneal pertussis toxin immediately and 1 day after immunisation. […] Proliferation and cytokine production were analysed by thymidine incorporation and ELISA and the mean±SEM proliferation in response to 50 μg/mL proinsulin (B) and IFN-γ production in response to 50 μg/mL proinsulin (C) or 10 μg/mL proinsulin peptides, in DLN cultures is shown. Percentage of proliferating CD3^+CD4^+CD25^highFoxP3^+ Tregs was measured by flow cytometry in LN cultures at day 42 (E). Serum levels of proinsulin specific IgG1 were measured at day 42 (F). […]

Substance	proportion of Type 1 diabetes patients responding (IFN-γ production) [1]	therapeutic potency of mono-PI in contrast to multi-PI (proinsulin)
718-36: fragment of IA-2, comprising residues 718-736 (AYQAEPNTCATAQGEGNIK; listed as Homo sapiens) [Group 718-36]	preferential sequences	–
855-67: fragment of IA-2, comprising residues 855-867 (YLKNVQTQETRTL; listed as Homo sapiens) [Group 855-67]	preferential sequences	–
C13-32: fragment of PI, comprising residues C13-C32 (GGGPGAGSLQPLALEGSLQK; listed as Homo sapiens) [Group C13-32]	–	lower levels of therapeutic potency
C19-A3: fragment of PI, comprising residues C19-A3 (GSLQPLALEGSLQKRGIV; listed as Homo sapiens) [Group C19-A3]	–	lower levels of therapeutic potency
C22-A5: fragment of PI, comprising residues C22-A5 (QPLALEGSLQKRGIVEQ; listed as Homo sapiens) [Group C22-A5]	–	lower levels of therapeutic potency
